Activity calls are given as the source filed them.
Assays:
[1] = biological target: T1, Aryl hydrocarbon receptor (Homo sapiens, UniProt P35869); conditions: Potency;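 also: confirmatory quantitative high-throughput screen measuring activation of the AhR signaling pathway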
T1 sequence (P35869 whole entry): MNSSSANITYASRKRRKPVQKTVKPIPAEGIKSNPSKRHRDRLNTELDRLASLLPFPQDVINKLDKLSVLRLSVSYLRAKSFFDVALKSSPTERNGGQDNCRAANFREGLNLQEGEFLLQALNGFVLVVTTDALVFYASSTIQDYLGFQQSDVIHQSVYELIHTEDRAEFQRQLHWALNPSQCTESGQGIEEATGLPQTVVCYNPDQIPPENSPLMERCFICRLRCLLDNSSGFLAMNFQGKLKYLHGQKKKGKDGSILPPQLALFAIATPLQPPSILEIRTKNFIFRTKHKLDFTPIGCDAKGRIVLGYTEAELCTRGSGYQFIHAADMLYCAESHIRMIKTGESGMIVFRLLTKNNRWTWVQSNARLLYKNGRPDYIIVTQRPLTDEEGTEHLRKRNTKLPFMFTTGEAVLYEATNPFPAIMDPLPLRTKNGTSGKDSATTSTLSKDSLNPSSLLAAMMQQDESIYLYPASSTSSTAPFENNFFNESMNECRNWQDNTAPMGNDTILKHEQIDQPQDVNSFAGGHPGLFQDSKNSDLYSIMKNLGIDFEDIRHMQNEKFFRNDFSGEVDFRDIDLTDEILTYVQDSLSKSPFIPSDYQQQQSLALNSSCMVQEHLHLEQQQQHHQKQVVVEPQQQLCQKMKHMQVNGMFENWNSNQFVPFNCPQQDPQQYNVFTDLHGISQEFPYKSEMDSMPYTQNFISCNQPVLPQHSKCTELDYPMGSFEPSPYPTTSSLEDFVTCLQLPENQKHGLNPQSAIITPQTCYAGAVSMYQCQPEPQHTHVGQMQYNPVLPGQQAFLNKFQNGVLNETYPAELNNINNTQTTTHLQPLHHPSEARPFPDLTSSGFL

HEK293 [2] = test: cells; assay type: functional, cell-based; conditions: Homo sapiens
[3] = biological target: T2, Nuclear receptor subfamily 0 group B member 1 (Homo sapiens, UniProt P51843); test: Luminescence-based cell-based high throughput dose response assay for inhibitors of the orphan nuclear receptor subfamily 0, group B, member 1 (DAX1; NR0B1). [Related pubchem assays (depositor defined):AID504766, AID504790]; assay type: functional
T2 sequence (P51843 whole entry): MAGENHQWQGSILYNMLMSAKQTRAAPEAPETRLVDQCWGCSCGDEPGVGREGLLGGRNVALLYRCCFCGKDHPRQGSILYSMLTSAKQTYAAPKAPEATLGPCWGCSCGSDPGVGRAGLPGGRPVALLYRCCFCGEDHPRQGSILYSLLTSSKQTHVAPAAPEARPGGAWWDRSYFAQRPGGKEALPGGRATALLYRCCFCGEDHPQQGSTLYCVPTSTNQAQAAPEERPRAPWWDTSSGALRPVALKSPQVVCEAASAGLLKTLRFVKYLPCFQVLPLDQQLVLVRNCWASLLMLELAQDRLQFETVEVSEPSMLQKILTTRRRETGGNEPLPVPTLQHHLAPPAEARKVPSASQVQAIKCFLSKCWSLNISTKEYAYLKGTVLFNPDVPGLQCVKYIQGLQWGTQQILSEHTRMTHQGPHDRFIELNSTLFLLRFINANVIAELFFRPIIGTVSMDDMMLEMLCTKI

[4] = biological target: Adenosylmethionine-8-amino-7-oxononanoate aminotransferase (Mycobacterium tuberculosis, UniProt P9WQ81); test: Mycobacterium tuberculosis BioA enzyme inhibitor Measured in Biochemical System Using Plate Reader - 2163-02_Inhibitor_Dose_CherryPick_Activity.; assay type: functional, Mycobacterium tuberculosis UT205
Streptokinase A = biological target: T3, Streptokinase A (Streptococcus pyogenes serotype M1, UniProt P10520); test: S. pyogenes streptokinase expression inhibitors, potency, dose response, plasminogen activation absorbance, OD405 (AID 1914); assay type: functional, Streptococcus pyogenes M1 GAS;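 also: secreted streptokinase activity via plasminogen activation per viability signal from cell pellet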
T3 sequence (P10520 whole entry): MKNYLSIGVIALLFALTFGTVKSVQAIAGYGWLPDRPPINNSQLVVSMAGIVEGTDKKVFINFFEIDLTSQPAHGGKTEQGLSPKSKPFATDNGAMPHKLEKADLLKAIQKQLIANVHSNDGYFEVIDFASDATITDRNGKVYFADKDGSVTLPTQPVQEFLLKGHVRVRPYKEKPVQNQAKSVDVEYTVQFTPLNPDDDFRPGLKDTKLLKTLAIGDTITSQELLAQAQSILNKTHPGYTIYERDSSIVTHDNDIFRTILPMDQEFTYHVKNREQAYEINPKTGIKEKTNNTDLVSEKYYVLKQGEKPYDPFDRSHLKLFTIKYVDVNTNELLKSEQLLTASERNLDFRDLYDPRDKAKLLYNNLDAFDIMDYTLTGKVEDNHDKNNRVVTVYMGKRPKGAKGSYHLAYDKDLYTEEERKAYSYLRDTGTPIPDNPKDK

[5] = tested on: Streptococcus sp. 'group A'; test: growth inhibition of control SK(-) GAS strain, dose response, counter-screen for streptokinase expression inhibitor project, luminescence, kanamycin, BacTiterGlo, confirmation (AID 1900); assay type: functional, organism-based
Escherichia coli = test: microbe, parasite or virus in culture
Streptococcus = test: Group A Streptococcus viability loss, dose response, counter-screen for streptokinase expression inhibitor project, luminescence, BacTiterGlo (AID 1915); assay type: functional, organism-based;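 also: potency for reduction of bacterial viability or growth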
[6] = biological target: Hepatocyte nuclear factor 4-alpha (Homo sapiens, UniProt P41235); assay type: functional, cell-based;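 also: biochemical luminescence-based dose-response counterscreen measuring inhibition of HNF4 dimerization, run alongside a screen for blockers of ABHD5–perilipin-5 interaction; split luciferase complementation of HNF4 fusion proteins in cell lysate measuring dimerization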
[7] = inhibitors of firefly luciferase expression or activity, dose response, H4 neuroglioma cells, luminescence (AID 1990); assay type: functional, cell-based
[8] = MC4R antagonists, dose response, counter-screen for LGR2 antagonist project, cell-based, plate reader, cherry pick (AID 743444); assay type: functional;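 also: transfected HEK 293 cells stimulated with alpha-MSH peptide; potency of inhibitors of the alpha-MSH evoked signal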
[9] = LGR2 antagonists, dose response, cell-based, HEK293, CRE-luciferase reporter, cherry pick, set 2 (AID 743343); assay type: functional;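 also: transfected cells were stimulated with diluted bursicon conditioned medium after compound addition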
[10] = Luminescence Cell-Based Dose Response HTS to Identify Inhibitors of 5'UTR Stem-Loop Driven Prion Protein mRNA Translation in H4 Neuroglioblastoma Cells. [Related pubchem assays: 1827 (Project Summary), 1813 (Primary HTS)]; assay type: functional
HEK293 [11] = test: inhibitors of LMP1-driven NF-kB reporter, dose response, cell-based, HEK293, luciferase, cherry-pick (AID 588343); assay type: functional; conditions: Homo sapiens
[12] = A549 cell cytotoxicity, dose response, cytotoxicity control, plate reader, cherry-pick, antagonist series (AID 743412); assay type: functional, cell-based
[13] = HEK293 cell cytotoxicity, dose response, cytotoxicity control, plate reader, cherry-picked samples (AID 743446); assay type: functional, cell-based
[14] = inhibitors of SNCA 5'UTR-driven reporter translation, confirmation, H4 neuroglioma cells, luminescence (AID 1988); assay type: functional, cell-based
[15] = biological target: Dual specificity protein kinase CLK2 (Homo sapiens, UniProt P49760); assay type: functional
[16] = biological target: Dual specificity tyrosine-phosphorylation-regulated kinase 1A (Homo sapiens, UniProt Q13627); assay type: functional;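 also: measured against DYRK1A as one member of a broad kinome profiling panel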
[17] = biological target: Dual specificity protein kinase CLK4 (Homo sapiens, UniProt Q9HAZ1); assay type: functional
[18] = biological target: 26S proteasome non-ATPase regulatory subunit 14 (Homo sapiens, UniProt O00487); test: inhibition of proteasome subunit RPN11 – biochemical, fluorescence polarization, uHTS hits, confirmation (AID 602368); assay type: functional
[19] = biological target: 72 kDa type IV collagenase (Homo sapiens, UniProt P08253); test: Dose Response validation of uHTS RPN11 inhibitor hits using a MMP-2 Fluorescence assay.; assay type: functional
Prothrombin = Prothrombin (Bos taurus, UniProt P00735); test: thrombin inhibition, dose response, biochemical, fluorescence polarization, uHTS hits (AID 602369); assay type: functional
[20] = biological target: T4, Polyadenylate-binding protein 1 (Homo sapiens, UniProt P11940); test: PABP1 MLLE–PAM2 interaction inhibitors, dose response, miRNA deadenylation inhibitor project, biochemical, fluorescence polarization, Cy5-PAM2 peptide, secondary (AID 602260); assay type: functional; conditions: read-out: IC50_Mean
[21] = biological target: T4, Polyadenylate-binding protein 1; test: PABP1 MLLE–PAM2 binding inhibitor potency, dose response, biochemical, fluorescence polarization, FITC-PAM2 peptide (AID 602259); assay type: functional; conditions: read-out: IC50_Mean
[22] = biological target: T5, Ubiquitin-conjugating enzyme E2 N (Homo sapiens, UniProt P61088); assay type: functional;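 also: Dose-response confirmation in a TR-FRET assay detecting UBC13-driven polyubiquitin chain formation, inhibition measured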
T5 sequence (P61088 whole entry): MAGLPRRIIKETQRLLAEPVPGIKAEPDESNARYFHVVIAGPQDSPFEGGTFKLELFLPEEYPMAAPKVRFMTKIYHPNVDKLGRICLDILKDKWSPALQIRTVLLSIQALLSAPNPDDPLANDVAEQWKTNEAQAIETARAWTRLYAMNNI

[23] = biological target: Arf-GAP with SH3 domain, ANK repeat and PH domain-containing protein 1 (Homo sapiens, UniProt Q9ULH1); assay type: functional;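 also: biochemical fluorescence polarization dose–response screen measuring inhibition of ASAP1; ASAP1 GAP domain stimulating GTP hydrolysis by truncated human ARF1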
[24] = cytotoxicity toward NIH3T3 fibroblasts, dose response, counter-screen, cell-based, ATP luminescence, mouse fibroblasts (AID 2010); assay type: functional;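 also: cells exposed to compound for about 90 hours before reading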
[25] = inhibitors of intracellular T. cruzi replication, confirmation, NIH3T3 host cells, beta-gal luminescence (AID 2044); assay type: functional, cell-based;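 also: intracellular parasites grown in NIH/3T3 mouse fibroblasts as host cells; luminescent beta-galactosidase reporter signal from transgenic T. cruzi replicating inside host cells; inhibitors lower the luminescence signal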
[26] = biological target: Heat shock protein HSP 90-alpha (Homo sapiens, UniProt P07900); assay type: functional, organism-based
[27] = biological target: Mitogen-activated protein kinase 9 (Homo sapiens, UniProt P45984); assay type: functional;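 also: value from a kinome panel profiling assay, MAPK9 panel entry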
cells = assay type: functional
Vero = Vero cell cytotoxicity, cytotoxicity control for flavivirus capping enzyme inhibitors (AID 588742); assay type: functional; conditions: Chlorocebus sabaeus
[28] = microbe, parasite or virus in culture; assay type: functional; conditions: Mycobacterium tuberculosis
Large T antigen = Large T antigen (Simian virus 40, UniProt P03070); assay type: functional, Betapolyomavirus macacae;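 also: Confirmatory-stage PubChem screen for compounds that inhibit SV40 T antigen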
Sequence of Large T antigen (P03070 whole entry): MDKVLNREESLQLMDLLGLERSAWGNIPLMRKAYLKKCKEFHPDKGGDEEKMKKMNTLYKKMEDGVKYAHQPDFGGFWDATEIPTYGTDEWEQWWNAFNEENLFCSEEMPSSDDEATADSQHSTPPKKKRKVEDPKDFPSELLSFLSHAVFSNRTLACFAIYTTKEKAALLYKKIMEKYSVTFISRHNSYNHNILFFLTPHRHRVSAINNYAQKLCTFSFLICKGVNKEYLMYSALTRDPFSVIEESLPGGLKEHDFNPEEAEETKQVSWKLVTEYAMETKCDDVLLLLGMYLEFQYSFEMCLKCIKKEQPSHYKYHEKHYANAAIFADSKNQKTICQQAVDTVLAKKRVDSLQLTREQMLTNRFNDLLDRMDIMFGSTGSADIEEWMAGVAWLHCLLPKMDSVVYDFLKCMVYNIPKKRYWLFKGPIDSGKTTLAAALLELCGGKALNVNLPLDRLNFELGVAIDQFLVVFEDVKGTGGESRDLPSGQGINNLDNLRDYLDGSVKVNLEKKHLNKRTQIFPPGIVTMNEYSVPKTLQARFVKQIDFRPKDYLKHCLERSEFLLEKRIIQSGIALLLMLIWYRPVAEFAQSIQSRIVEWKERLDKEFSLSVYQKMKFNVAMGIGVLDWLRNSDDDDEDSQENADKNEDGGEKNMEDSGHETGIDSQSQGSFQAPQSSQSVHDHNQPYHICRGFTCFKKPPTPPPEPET

Sequence of 26S proteasome non-ATPase regulatory subunit 14 (O00487 whole entry): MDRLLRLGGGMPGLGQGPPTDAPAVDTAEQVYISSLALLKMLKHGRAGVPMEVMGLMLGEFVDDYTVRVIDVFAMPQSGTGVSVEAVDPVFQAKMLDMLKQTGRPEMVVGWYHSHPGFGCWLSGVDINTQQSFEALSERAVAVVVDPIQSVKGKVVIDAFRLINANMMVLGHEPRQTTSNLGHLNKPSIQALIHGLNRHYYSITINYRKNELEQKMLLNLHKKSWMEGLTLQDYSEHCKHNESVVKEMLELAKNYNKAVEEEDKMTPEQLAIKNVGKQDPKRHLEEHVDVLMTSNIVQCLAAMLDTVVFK
T4 sequence (P11940 whole entry): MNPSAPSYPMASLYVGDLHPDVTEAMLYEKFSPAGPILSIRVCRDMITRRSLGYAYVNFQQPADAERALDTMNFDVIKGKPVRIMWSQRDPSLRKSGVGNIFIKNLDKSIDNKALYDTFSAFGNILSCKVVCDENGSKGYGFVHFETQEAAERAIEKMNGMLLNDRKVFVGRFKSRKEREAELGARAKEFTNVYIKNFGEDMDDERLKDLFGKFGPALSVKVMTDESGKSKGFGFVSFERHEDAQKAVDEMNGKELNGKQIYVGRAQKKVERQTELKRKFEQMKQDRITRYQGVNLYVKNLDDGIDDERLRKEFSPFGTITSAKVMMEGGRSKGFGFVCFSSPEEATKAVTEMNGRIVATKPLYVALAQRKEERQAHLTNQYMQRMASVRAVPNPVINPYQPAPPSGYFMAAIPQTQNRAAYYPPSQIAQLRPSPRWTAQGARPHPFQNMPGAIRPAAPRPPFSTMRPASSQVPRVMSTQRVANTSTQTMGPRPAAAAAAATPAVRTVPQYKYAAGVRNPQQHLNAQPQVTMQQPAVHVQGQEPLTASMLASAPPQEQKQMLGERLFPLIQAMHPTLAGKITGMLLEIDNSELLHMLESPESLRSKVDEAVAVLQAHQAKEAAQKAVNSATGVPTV
Sequence of Hepatocyte nuclear factor 4-alpha (P41235 whole entry, the tested form may be a part): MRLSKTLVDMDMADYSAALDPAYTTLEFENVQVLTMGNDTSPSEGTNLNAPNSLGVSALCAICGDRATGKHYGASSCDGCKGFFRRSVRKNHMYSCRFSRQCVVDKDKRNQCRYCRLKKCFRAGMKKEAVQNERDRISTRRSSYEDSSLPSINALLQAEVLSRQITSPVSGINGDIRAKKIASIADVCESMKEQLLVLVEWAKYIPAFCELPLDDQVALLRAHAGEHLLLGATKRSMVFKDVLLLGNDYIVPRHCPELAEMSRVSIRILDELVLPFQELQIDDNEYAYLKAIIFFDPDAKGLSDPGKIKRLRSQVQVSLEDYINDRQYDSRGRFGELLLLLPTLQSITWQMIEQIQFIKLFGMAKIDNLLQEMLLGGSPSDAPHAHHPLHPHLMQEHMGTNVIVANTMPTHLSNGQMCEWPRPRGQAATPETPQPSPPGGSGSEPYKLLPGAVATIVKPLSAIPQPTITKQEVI
Sequence of 72 kDa type IV collagenase (P08253 whole entry): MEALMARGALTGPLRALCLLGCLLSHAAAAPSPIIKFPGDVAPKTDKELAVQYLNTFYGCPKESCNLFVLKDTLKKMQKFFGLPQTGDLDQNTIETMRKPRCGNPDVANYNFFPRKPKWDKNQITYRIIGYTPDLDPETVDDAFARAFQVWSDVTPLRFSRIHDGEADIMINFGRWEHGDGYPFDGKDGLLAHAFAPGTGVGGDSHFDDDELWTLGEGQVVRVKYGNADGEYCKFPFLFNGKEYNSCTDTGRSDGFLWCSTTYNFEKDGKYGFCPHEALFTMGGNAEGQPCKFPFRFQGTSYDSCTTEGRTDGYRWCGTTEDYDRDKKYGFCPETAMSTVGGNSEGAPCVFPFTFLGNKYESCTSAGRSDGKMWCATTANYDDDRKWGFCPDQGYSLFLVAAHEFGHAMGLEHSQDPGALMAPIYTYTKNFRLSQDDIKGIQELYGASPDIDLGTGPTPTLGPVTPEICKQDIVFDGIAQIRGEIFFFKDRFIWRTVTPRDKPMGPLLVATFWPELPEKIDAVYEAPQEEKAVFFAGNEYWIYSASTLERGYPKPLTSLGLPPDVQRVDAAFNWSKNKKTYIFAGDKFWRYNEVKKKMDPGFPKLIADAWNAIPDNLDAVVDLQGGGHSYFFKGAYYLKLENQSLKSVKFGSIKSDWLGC
Sequence of Adenosylmethionine-8-amino-7-oxononanoate aminotransferase (P9WQ81 whole entry): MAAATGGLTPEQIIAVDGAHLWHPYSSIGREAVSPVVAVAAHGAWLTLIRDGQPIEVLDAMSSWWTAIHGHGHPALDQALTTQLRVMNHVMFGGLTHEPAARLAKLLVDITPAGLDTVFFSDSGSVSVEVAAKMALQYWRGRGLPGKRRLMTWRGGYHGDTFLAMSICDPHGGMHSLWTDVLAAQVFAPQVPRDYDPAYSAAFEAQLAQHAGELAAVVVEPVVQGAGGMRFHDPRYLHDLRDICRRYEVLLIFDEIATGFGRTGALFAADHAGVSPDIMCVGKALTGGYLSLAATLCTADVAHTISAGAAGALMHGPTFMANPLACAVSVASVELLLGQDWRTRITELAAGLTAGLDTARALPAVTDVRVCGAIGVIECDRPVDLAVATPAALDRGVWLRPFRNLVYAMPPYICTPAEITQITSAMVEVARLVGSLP
Sequence of Mitogen-activated protein kinase 9 (P45984 whole entry): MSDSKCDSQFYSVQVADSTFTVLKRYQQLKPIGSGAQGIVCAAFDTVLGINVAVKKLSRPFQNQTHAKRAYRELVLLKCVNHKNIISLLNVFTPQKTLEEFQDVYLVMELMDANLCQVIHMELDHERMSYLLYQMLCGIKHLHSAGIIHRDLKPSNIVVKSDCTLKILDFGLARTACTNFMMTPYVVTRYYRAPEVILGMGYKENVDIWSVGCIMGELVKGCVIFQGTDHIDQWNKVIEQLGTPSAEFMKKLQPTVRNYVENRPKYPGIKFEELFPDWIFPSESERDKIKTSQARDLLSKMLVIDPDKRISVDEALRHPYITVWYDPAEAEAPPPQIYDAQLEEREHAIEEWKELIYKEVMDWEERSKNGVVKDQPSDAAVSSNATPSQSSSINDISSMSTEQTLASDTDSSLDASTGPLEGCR
Sequence of Dual specificity protein kinase CLK2 (P49760 whole entry): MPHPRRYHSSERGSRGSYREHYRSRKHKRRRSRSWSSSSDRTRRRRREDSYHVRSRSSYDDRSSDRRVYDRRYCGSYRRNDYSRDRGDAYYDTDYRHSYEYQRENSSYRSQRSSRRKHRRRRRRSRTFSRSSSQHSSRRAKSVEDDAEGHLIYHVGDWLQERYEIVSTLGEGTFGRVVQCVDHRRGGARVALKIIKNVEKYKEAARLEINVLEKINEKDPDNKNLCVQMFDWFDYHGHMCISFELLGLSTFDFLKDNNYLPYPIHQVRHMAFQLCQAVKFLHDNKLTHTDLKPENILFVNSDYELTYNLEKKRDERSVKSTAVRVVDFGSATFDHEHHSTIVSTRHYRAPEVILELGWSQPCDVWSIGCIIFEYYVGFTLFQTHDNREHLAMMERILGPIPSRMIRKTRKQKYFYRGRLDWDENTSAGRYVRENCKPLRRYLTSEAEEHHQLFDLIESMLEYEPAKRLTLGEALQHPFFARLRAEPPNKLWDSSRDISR
Sequence of Dual specificity protein kinase CLK4 (Q9HAZ1 whole entry): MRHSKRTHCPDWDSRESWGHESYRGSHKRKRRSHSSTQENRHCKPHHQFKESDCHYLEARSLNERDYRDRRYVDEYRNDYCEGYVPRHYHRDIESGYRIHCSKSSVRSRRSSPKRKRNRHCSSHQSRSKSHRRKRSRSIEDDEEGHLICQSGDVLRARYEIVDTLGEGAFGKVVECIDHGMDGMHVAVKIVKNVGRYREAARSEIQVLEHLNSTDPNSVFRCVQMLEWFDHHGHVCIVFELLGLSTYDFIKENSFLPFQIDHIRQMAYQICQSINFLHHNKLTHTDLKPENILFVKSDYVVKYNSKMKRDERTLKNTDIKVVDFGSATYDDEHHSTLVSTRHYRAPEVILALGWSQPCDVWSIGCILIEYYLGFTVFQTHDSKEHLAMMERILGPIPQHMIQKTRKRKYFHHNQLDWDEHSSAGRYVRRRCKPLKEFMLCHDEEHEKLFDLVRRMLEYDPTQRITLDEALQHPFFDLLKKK

SMILES: COc1cc(Cl)c(OC)cc1N
- AC50 [1]: 56.2 µM (inconclusive)

SMILES: O=S(=O)(NCC1NCCc2ccccc21)c1ccccc1 (stereo not given)
- IC50 (HEK293 [2]): > 67.6 µM (inactive)
- IC50 [3]: > 67.6 µM (inactive)

SMILES: O=C(COc1ccc2ccc(=O)oc2c1)N1CCN(c2ccc(F)cc2)CC1
- AC50 [4]: 1 µM (active)

SMILES: Oc1ccc2cc(SSc3ccc4cc(O)ccc4c3)ccc2c1
- AC50 [1]: 56.2 µM (inconclusive)

SMILES: C=CCN(CC=C)S(=O)(=O)c1ccc(NC(=S)NC(=O)C2CC2)cc1
- EC50 (Streptokinase A): > 150 µM (not active)
- EC50 [5]: > 150 µM (not active)
- AC50 (Escherichia coli): 29.4 µM (active)
- EC50 (Streptococcus): > 150 µM (not active)

SMILES: COc1ccc(NC(=O)C(c2ccccc2)n2c(=O)c(-c3ccco3)nc3ccccc32)cc1 (stereo not given)
- IC50 [6]: 12.8 µM (inactive)

SMILES: Cc1ccnc(NC(=O)CCC(=O)c2cccs2)c1
- EC50 [7]: 4.73 µM (inconclusive)
- AC50 [8]: 2.17 µM (active)
- AC50 [9]: 2.38 µM (active)
- EC50 [10]: 2.97 µM (active)
- AC50 (HEK293 [11]): 3 µM (active)
- AC50 [12]: > 52 µM (inactive)
- AC50 [13]: 34.9 µM (active)
- EC50 [14]: 2.36 µM (active)

SMILES: COC(=O)c1sc(N)c(C(=O)OC)c1CSc1nnc(-c2ccccc2Cl)n1C
- AC50 [4]: 1.07 µM (active)

SMILES: O=c1[nH]c2ccc(Br)cc2n1-c1cc(Cl)c(O)cc1O
- Ki [15]: 6.31 µM (active)
- Ki [16]: 5.01 µM (active)
- Ki [17]: 3.16 µM (active)

SMILES: Cc1ccc(C)c(OCCn2cc(/C=C(/C#N)C(=O)NCC3CCCO3)c3ccccc32)c1 (stereo not given)
- IC50 [18]: 27.5 µM (active)
- IC50 [19]: > 100 µM (inactive)
- IC50 (Prothrombin): 45.4 µM (active)

SMILES: COc1ccc(NC(=O)C(c2cccc3ccccc23)n2c(=O)c(-c3ccco3)nc3ccccc32)cc1 (stereo not given)
- IC50 [6]: 25.5 µM (inactive)

SMILES: CCOc1ccc(NC(=S)N=Nc2c(O)[nH]c3ccccc23)cc1
- EC50 (Streptokinase A): > 150 µM (not active)
- EC50 [5]: 0.465 µM (active)
- AC50 (HEK293 [11]): 2.7 µM (active)
- IC50 [20]: > 66 µM (inactive)
- IC50 [21]: > 66 µM (inactive)
- IC50 [22]: > 20 µM (inactive)
- EC50 (Streptococcus): 5.53 µM (active)

SMILES: COC(=O)c1ccc(NC(=O)c2cn(-c3ccccc3)nc2-c2ccncc2)cc1
- IC50 [23]: 17.2 µM (inactive)
- EC50 [24]: > 60 µM (not active)
- EC50 [25]: 1.9 µM (active)
- AC50 [26]: 4.18 µM (active)

SMILES: Cc1cc(N2CCCC2)c(F)cc1/C=C\[N+](=O)[O-]
- IC50 [18]: 14.7 µM (active)
- IC50 [19]: > 100 µM (inactive)
- IC50 (Prothrombin): 20 µM (active)

SMILES: CC(C)(C)c1cc(NC(=O)c2cc3ccccc3s2)n(-c2ccc(OCC(=O)O)cc2)n1
- Ki [27]: 3.98 µM (active)

SMILES: Cc1ccc(N/N=C2\CS(=O)(=O)N(C)c3ccsc32)cc1
- IC50 (HEK293 [2]): > 67.5 µM (inactive)
- EC50 (Streptokinase A): 4.04 µM (active)
- EC50 [5]: 1.25 µM (active)
- EC50 [24]: > 60 µM (not active)
- IC50 [3]: > 67.5 µM (inactive)
- EC50 [25]: 2.21 µM (active)
- IC50 (cells): 21.2 µM (active)
- EC50 (Streptococcus): 11.3 µM (active)

SMILES: Cc1cccc(CN2CCN(C(S)=Nc3ccccc3)CC2)c1
- IC50 (HEK293 [2]): > 67.6 µM (inactive)
- IC50 [3]: > 67.6 µM (inactive)

SMILES: c1ccc(-n2cnc3cc(NCc4cccs4)ccc32)cc1
- CC50 (Vero): > 40 µM (active)
- CC50 [28]: > 40 µM (active)

SMILES: O=c1c(-c2ccc([N+](=O)[O-])cc2)coc2c(O)c(O)ccc12
- CC50 (Vero): 21.4 µM (active)
- IC50 (Large T antigen): 13.8 µM (active)
